Columns and labels:
[1] = tested on: rat heart mitochondria; assay: Chemiluminescent NO analysis of total S-nitrosothiol in treated mitochondria; assay type: biochemical
Description: At concentrations above 250 μM, secondary reactions such as free S-nitrosothiol or NO2^− formation were observed.
Rat heart mitochondria were isolated using differential centrifugation (Tompkins, et al. (2005) Biochim. Biophys. Acta PMID: 16278076). Protein was determined by the Folin-phenol method (Lowry, et al. (1951) J. Bio. Chem. 193:265-75) against a standard curve constructed using bovine serum albumin. Mitochondrial incubations and all subsequent steps were performed in the dark. One mg of mitochondrial protein was suspended in 1 mL of mitochondrial respiration buffer (Tompkins, et al. (2005) supra) containing respiratory substrates glutamate (5 mM), malate (2.5 mM) and succinate (5 mM). […] Samples were centrifuged (5 minutes, 14,000×g), and supernatants removed. The pellets were then resuspended in 1 mL of respiration buffer, and centrifuged again. Pellets were frozen in liquid N2 for subsequent analysis. For ONOO^− treatments, 4 μL of 25 mM ONOO^− stock (100 μM final concentration) was added the cap of the reaction tube, the cap quickly closed and the tube shaken immediately. The process was then repeated twice at 30 second intervals, for a total of 3 additions. Mitochondria were then pelleted, washed, and frozen as for S-nitrosoglutathione samples. Complex I activity was assayed as the rotenone-sensitive oxidation of NADH, at 340 nm in the presence of coenzyme Q1 (Borutaite, et al. (2000) supra). Complex IV was assayed by monitoring the cyanide-sensitive first-order oxidation of reduced cytochrome c, at 550 nm according to established methods (Cleeter, et al. (1994) supra).
Chemiluminescent analysis of S-nitrosothiol content was performed on samples originating from blue-native gels, intact mitochondria and SUPEROSE™ 6 chromatography fractions, according to known methodologies (Yang, et al. (2003) Free Radic. Res. 37:1-10). […] Each sample was run in duplicate and quantified using a standard curve created with known concentrations of NaNO2.

[2] = target: T1, 75 kDa subunit of complex I (Rattus norvegicus, UniProt Q66HF1); assay: SUPEROSE 6 chromatography S-nitrosothiol profile with biotin switch identification of S-nitrosated peptide; assay type: biochemical; conditions: S-nitrosoglutathione-treated mitochondria
T1 construct: Mitochondrial protein (3 mg) was extracted in 300 μL of column running buffer; from tissue; host or cells: rat heart mitochondria, SUPEROSE 6 column fraction enriched in complex I
T1 sequence (Q66HF1 24-727, one chain of several): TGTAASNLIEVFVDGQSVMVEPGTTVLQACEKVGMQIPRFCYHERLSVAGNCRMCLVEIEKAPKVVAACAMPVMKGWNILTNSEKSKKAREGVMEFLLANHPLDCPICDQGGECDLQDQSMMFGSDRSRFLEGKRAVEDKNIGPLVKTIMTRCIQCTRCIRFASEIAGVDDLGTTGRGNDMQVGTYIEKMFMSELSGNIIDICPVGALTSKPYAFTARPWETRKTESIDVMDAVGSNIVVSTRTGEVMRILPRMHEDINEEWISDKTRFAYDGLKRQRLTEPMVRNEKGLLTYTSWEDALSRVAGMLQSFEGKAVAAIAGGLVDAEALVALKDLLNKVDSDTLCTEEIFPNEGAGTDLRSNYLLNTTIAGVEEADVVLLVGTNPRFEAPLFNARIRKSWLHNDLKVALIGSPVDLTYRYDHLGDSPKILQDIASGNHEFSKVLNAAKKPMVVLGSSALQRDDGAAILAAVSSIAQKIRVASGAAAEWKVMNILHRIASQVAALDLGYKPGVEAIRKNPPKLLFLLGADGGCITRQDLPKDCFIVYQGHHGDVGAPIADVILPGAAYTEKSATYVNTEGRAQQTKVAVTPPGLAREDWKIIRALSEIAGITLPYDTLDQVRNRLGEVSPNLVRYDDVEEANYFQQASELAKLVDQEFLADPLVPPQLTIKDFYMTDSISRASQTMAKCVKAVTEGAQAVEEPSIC
Description: To simplify separation of complex I, SUPEROSE™ 6 gel filtration chromatography was employed as a liquid phase high-throughput separation method (Danial, et al. (2003) Nature 424:952-6). Chemiluminescent analysis of column fractions was then used to construct an S-nitrosothiol profile. Most S-nitrosothiol concentrated in two regions of the chromatogram, eluting at ˜35% and 85% of the column bed volume.
The fraction with most S-nitrosothiol content was enriched in complex I activity, and was then further analyzed by biotin switch assay to identify S-nitrosated peptides (i.e., which of the 46 subunits in complex I was S-nitrosated). […]
A 25 cm×1 cm BIO-RAD® glass ECONO-COLUMN™ was used, with appropriate flow adaptor (BIO-RAD®, Hercules Calif.) and a MASTERFLEX™ peristaltic pump (Cole Parmer, Vernon Hills, Ill.). […] Fractions (200 μL) were collected, and their A280 measured to determine relative protein content. In addition, the S-nitrosothiol content and complex I activity of each fraction were analyzed as disclosed herein. […] Therefore, for data comparison the relative position of eluted column fractions was expressed as a percentage of the total column bed volume. […]
For biotin-switch analysis, intact mitochondrial pellets (1 mg protein solubilized in extraction buffer) or chromatography column fractions were analyzed in accordance with known methods (Jaffrey & Snyder (2001) supra). […]

[3] = tested on: isolated adult rat cardiomyocytes; assay: Cardiomyocyte model of ischemia-reperfusion injury, cell viability by Trypan blue exclusion; assay type: cell-based; conditions: for protection of cardiomyocyte viability from ischemia-reperfusion injury: 1 hour ischemia, 30 minutes reoxygenation
Description: Isolated adult rat cardiomyocytes were subjected to 1 hour ischemia (anoxic, glucose free medium, pH 6.5) followed by 30 minutes reoxygenation (labeled “HR”). Cell viability was assayed by Trypan blue exclusion. […] All data are means±SEM, N>3.
Adult rat cardiomyocytes were prepared by collagenase perfusion according to standard methods (Dai, et al. (2001) supra), yielding ˜4×10^6 cells per heart, >80% rod-shaped and viable. Incubations were in a shaking water bath at 37° C., each utilizing 5×10^5 cells in 5 mL of the KH buffers described below. For the control, cells were incubated for 2 hours in oxygenated KH buffer (95/5 O2/CO2). For ischemia-reperfusion treatment, cells were subjected to 30 minutes in oxygenated KH buffer, 1 hour in “ischemic” KH buffer (95/5 N2/CO2, pH 6.5, no glucose), and 30 minutes in oxygenated KH buffer. For the ischemia-reperfusion injury and test compound group of cells, ischemia-reperfusion injury was carried out as described above with test compound present during the 30 minute equilibration prior to ischemia-reperfusion and absent during ischemia. […] At the end of each protocol, cell viability was assayed (Trypan blue), and mitochondrial function determined (measurement of ΔΨm with the fluorescent probe TMRE, respiration with an O2 electrode, and S-nitrosothiol content by chemiluminescence and biotin-switch.

In the case of `N[C@@H](CCC(=O)N[C@@H](CSN=O)C(=O)NCC(=O)O)C(=O)O` [S-nitrosoglutathione], the “concentration above which secondary reactions (free S-nitrosothiol or NO2- formation) were observed” value [1] is reported as “above 250 μM”, the “total S-nitrosothiol” value ([1]; 100 μM treatment) is reported as ~1700 pmol/mg mitochondrial protein and the “concentration approaching saturation of total S-nitrosothiol (free plus protein-bound)” value ([1]; range 10 μM to 1 mM) is reported as about 300 µM. For the same compound, the “share of total protein-bound S-nitrosothiol contained in the 75 kDa subunit of complex I” value [2] was about 20%, the “concentration required to achieve levels of protection comparable to 10-20 μM S-nitroso-2-mercaptopropylglycine” value [3] was 100 μM and the “protection of cardiomyocyte viability from ischemia-reperfusion injury” value ([3]; 10 μM) was “no protection”. The “protection of cardiomyocyte viability from ischemia-reperfusion injury” value ([3]; 100 μM) was “significant protection”.

— patent publication US20060122267A1, “Compositions and methods for attenuating mitochondria-mediated cell injury” (priority 2003, published 2006)
